Measurements as given in patent US20120202272A1, “LIGE-TYPE SYSTEMS FOR BIOCONVERSION OF LIGNIN-DERIVED COMPOUNDS” (priority 2010, published 2012).

B1: ligE: S. paucimobilis ligE beta-etherase, positive control polypeptide (protein)
chain: MARNNTITLYDLQLESGCTISPYVWRTKYALKHKGFDIDIVPGGFTGILERTGGRSERVPVIVDDGEWVLDSWVIAEYLDEKYPDRPMLFEGPTQKNLMKFLDNWLWSTAVGPWFRCYILDYHDLSLPQDRDYVRWSREQWFLGGQRLEDVQAGREDRLPLVPPTLEPFRRILAETKWLGGDQPNFADYSALAVFLWTASVARTPPLTEDDPLRDWLDRGFDLFDGLGRHPGMNPLFGLKLREGDPEPFVRQTGPAGAGGQALNKGPQTTKMPPRVAEKAD
B2: ligE1: N. aromaticivorans beta-etherase polypeptide, glutathione S-transferase-like protein, GenBank ABD26841.1 (protein)
chain: MAANNTITFYDLALSTGATISPFVWATKYALKHKGFDLDVVPGGFTGILERTGGKTERLPAIVDDGEFVLDSWGIVEYLDAKYPDRPVLIPHESVAATLKALDNWFWNAAVGPWMFCFCQDYRDLSLPQDHEYVTHSREKMLGRKLEEVQAGREERLPKISAALEPLRAALAQHQWLGGSSPNYADYRIMGGILFTASVCKTPVLANDDPLRDWIERCLDLYGGLGRHPGLFPLFGLEQREGDPDLFNRAAGQGGIYKRNTGPESTRAETQRITEGMKK
B3: LigF2: N. aromaticivorans beta-etherase polypeptide, glutathione S-transferase-like protein, GenBank ABD27301.1 (protein)
chain: MALKYYHAEPLANSLKSMVPLKEKGLAYESIYVDLHKFEQHQPWFTAINPEGQVPVLDHDGTIITHTTVINEYLEDAFPDAQPADAPLRPRDPVGAARMRYWNKFIDEHVMNYVSMHGWHRMVGVIARNIASGDFEKLLESIPLPDQRKKWATARSGFSEADLANATAKIEYALDKVEKQLGETKWLAGDTYTLADINFYSHCGAMVERMFPEMEVARRAPRLCEWRDRVAARPAVAEALKSEDRTAPGLRVWSGEVR
B4: LigF: S. paucimobilis LigF beta-etherase, positive control polypeptide (protein)
chain: MTLKLYSFGPGANSLKPLATLYEKGLEFEQVFVDPSKFEQHSDWFKKINPRGQVPALWHDGKVVTESTVICEYLEDVFPESGNSLRPADPFKRAEMRVWTKWVDEYFCWCVSTIGWAFGIKAIAQKMSDEEFEEHINKNVPIPEQQLKWRRARNGFPQEMLDEEFRKVGVSVARLEETLSKQDYLVDTGYSLADICNFAIANGLQRPGGFFGDYVNQEKTPGLCAWLDRINARPAIKEMFEKSKREDLLKRQNEKVA

Legend:
Escherichia coli = conditions: stated as demonstrated; cited from earlier work
[1] = in vitro biochemical assay for beta-etherase activity on fluorescent substrate MUAV (4MU formation, clarified E. coli cell extracts)
Source text: The model substrate synthesis 150 for use in the biochemical screening for selective activity can be outsourced through a contract research organization (CRO). The enzyme discovery effort can initially be focused on identifying potential beta-etherase candidate genes identified through bioinformatic methods. […] The fluorescent substrate α-O-(β-methylumbelliferyl)acetovanillone (MUAV), for example, can be used in in vitro assays to identify beta-etherase function (Acme Biosciences, Mt. View, Calif.). The formation of 4 methylumbelliferone (4MU) upon hydrolysis of the aryl ether bond can be monitored by fluorescence, for example, at λex=365 nm and λem=450 nm (or 460 nm).
The enzyme screening 155 is done to identify novel etherases 160. […] Expression of the beta-etherase genes can be done in 5 ml or 25 ml samples of the recombinant E. coli strains in LB medium using induction with IPTG. Following induction, and cell harvest, cell pellets can be lysed using the BPER (Invitrogen) cell lysis system. […] The formation of 4 methylumbelliferone (4MU) upon hydrolysis of the aryl ether bond in MUAV can be monitored by fluorescence at λex=365 nm and λem=460 nm, and can provide quantitative measurement of beta-etherase function. Cell extracts of E. coli transformed with the S. paucimobilis ligE and ligF genes can be the assay positive controls. Test or unknown samples can include, for example, E. coli strains expressing putative beta-etherase genes from N. aromaticovorans.
This example describes a method for gene expression in E. coli, as well as beta-etherase biochemical assays. Expression of known and putative beta-etherase genes was performed using 5 ml cultures of the recombinant E. coli strains described herein in Luria Broth medium by induction of gene expression using isopropylthiogalactoside (IPTG) to a final concentration of 0.1 mM. Following induction, and cell harvest, the cells were disrupted using either sonication or the BPER (Invitrogen) cell lysis system.
In vitro reactions were performed in a total volume of 200 ul and contained: 25 mM TrisHCl pH 7.5; 0.5 mM dithiothreitol; 1 mM glutathione; 0.05 mM or 0.1 mM MUAV; 10 ul of clarified cell extract used to initiate the reactions. Following incubation for 2.5 hours at room temperature, a 50 ul sample of the reactions was terminated using 150 uL of 300 mM glycine/NaOH buffer pH 9. The formation of 4 methylumbelliferone (4MU) upon hydrolysis of the aryl ether bond was monitored by the increase in fluorescence at λex=360 nm and λem=450 nm using a Spectramax UV/visible/fluorescent spectrophotometer.
The total protein concentrations of the cell lysates were determined using the BCA reagent system for protein quantification (Pierce).
Induction might be also performed using IPTG concentrations in the range of 0.01-1 mM. Cell disruption might be also performed using toluene permeabilization, French pressure techniques, or using multiple freeze/thaw cycles in conjunction with lysozyme. Assay conditions might be varied to include TrisHCl at 10-150 mM concentrations and in the pH range of 6.5-8.5; 0-2 mM dithiothreitol; 0.05-2 mM glutathione; 0.01-5 mM MUAV substrate; 22-42° C. reaction temperatures. The biochemical assay might be performed as a fixed time point assay with reaction times ranging from 5 minutes-12 hours, or performed continuously without quenching with glycine/NaOH buffer to extract enzyme kinetic parameters.

[2] = reactions containing 0.1 mM MUAV substrate, E. coli cell extracts
[3] = MUAV substrate, concentration not given

Molecule	antibacterial activity against Escherichia coli (Escherichia coli)	other results
O=Cc1ccc(O)c(O)c1O [2,3,4-trihydroxybenzaldehyde]	antibacterial activity	–
O=Cc1cccc(O)c1O [2,3-dihydroxybenzaldehyde]	antibacterial activity	–
O=Cc1c(O)cc(O)cc1O [2,4,6-trihydroxybenzaldehyde]	antibacterial activity	–
O=Cc1ccc(O)cc1O [2,4-dihydroxybenzaldehyde]	antibacterial activity	–
O=Cc1cc(O)ccc1O [2,5-dihydroxybenzaldehyde]	antibacterial activity	–
COc1cccc(C=O)c1O [2-hydroxy-3-methoxybenzaldehyde]	antibacterial activity	–
COc1ccc(O)c(C=O)c1 [2-hydroxy-5-methoxybenzaldehyde]	antibacterial activity	–
O=Cc1ccccc1O [2-hydroxybenzaldehyde]	antibacterial activity	–
COc1cc(O)cc(OC)c1C=O [4-hydroxy-2,6-dimethoxybenzaldehyde]	antibacterial activity	–
B1	–	total activity (beta-etherase) [1, 2]: 7 rfu/ug
B2	–	beta-etherase activity (in words) ([1]; MUAV substrate): beta-etherase activity; efficiency relative to S. paucimobilis ligE beta-etherase enzyme ([1]; MUAV substrate): approximately 75 fold; total activity (beta-etherase) [1, 2]: 529 rfu/ug
B3	–	efficiency relative to S. paucimobilis LigF protein ([1]; MUAV substrate): approximately 2 fold; total activity (beta-etherase) [1, 3]: 1206 rfu/ug
B4	–	total activity (beta-etherase) [1, 3]: 558 rfu/ug
